Experimental data taken from ChEMBL document CHEMBL1687748 (Antimicrob Agents Chemother, 2009).

Columns and labels:
Assay type in all cases: functional
[1] = test system: Bacillus anthracis; assay: Growth rate constant of vegetative-phase cells going to spore phase in toxin and capsule gene-deficient Bacillus anthracis Sterne in hollow-fiber pharmacodynamic infection model administered for every 24 hrs
[2] = test system: Bacillus anthracis; assay: Kill rate constant for compound-sensitive toxin and capsule gene-deficient Bacillus anthracis Sterne in hollow-fiber pharmacodynamic infection model at 150 mg, qd by Bayesian method
[3] = test system: Bacillus anthracis; assay: Hill constant for compound-sensitive toxin and capsule gene-deficient Bacillus anthracis Sterne in hollow-fiber pharmacodynamic infection model at 150 mg, qd by Bayesian method
[4] = test system: Bacillus anthracis; assay: Total sensitive organism counts of toxin and capsule gene-deficient Bacillus anthracis Sterne in hollow-fiber pharmacodynamic infection model at 150 mg, qd by Bayesian method
[5] = test system: Bacillus anthracis; assay: Hill constant for compound-sensitive toxin and capsule gene-deficient Bacillus anthracis Sterne in hollow-fiber pharmacodynamic infection model at 100 mg, qd by Bayesian method
[6] = test system: Bacillus anthracis; assay: Total spore counts of toxin and capsule gene-deficient Bacillus anthracis Sterne in hollow-fiber pharmacodynamic infection model at 200 mg administered as continuous infusion by Bayesian method
[7] = test system: Bacillus anthracis; assay: Growth rate constant of vegetative-phase cells going to spore phase in toxin and capsule gene-deficient Bacillus anthracis Sterne in hollow-fiber pharmacodynamic infection model at 150 mg administered as continuous infusion by Bayesian method
[8] = test system: Bacillus anthracis; assay: Total sensitive organism counts of toxin and capsule gene-deficient Bacillus anthracis Sterne in hollow-fiber pharmacodynamic infection model at 100 mg administered as continuous infusion by Bayesian method
[9] = test system: Bacillus anthracis; assay: Hill constant for compound-sensitive toxin and capsule gene-deficient Bacillus anthracis Sterne in hollow-fiber pharmacodynamic infection model at 250 mg administered as continuous infusion by Bayesian method
[10] = test system: Bacillus anthracis; assay: Hill constant for compound-sensitive toxin and capsule gene-deficient Bacillus anthracis Sterne in hollow-fiber pharmacodynamic infection model at 150 mg administered as continuous infusion by Bayesian method
[11] = test system: Bacillus anthracis; assay: Growth rate constant of vegetative-phase cells going to spore phase in toxin and capsule gene-deficient Bacillus anthracis Sterne in hollow-fiber pharmacodynamic infection model at 150 mg, qd by Bayesian method
[12] = test system: Bacillus anthracis; assay: Kill rate constant for compound-sensitive toxin and capsule gene-deficient Bacillus anthracis Sterne in hollow-fiber pharmacodynamic infection model at 200 mg, qd by Bayesian method
[13] = test system: Bacillus anthracis; assay: Growth rate constant for compound-sensitive toxin and capsule gene-deficient Bacillus anthracis Sterne in hollow-fiber pharmacodynamic infection model at 150 mg administered as continuous infusion by Bayesian method
[14] = test system: Bacillus anthracis; assay: Kill rate constant for compound-sensitive toxin and capsule gene-deficient Bacillus anthracis Sterne in hollow-fiber pharmacodynamic infection model at 150 mg administered as continuous infusion by Bayesian method
[15] = test system: Bacillus anthracis; assay: Total sensitive organism counts of toxin and capsule gene-deficient Bacillus anthracis Sterne in hollow-fiber pharmacodynamic infection model at 250 mg, qd by Bayesian method
[16] = test system: Bacillus anthracis; assay: Growth rate constant of vegetative-phase cells going to spore phase in toxin and capsule gene-deficient Bacillus anthracis Sterne in hollow-fiber pharmacodynamic infection model at 250 mg administered as continuous infusion by Bayesian method
[17] = test system: Bacillus anthracis; assay: Growth rate constant for compound-sensitive toxin and capsule gene-deficient Bacillus anthracis Sterne in hollow-fiber pharmacodynamic infection model at 150 mg, qd by Bayesian method
[18] = test system: Bacillus anthracis; assay: Total sensitive organism counts of toxin and capsule gene-deficient Bacillus anthracis Sterne in hollow-fiber pharmacodynamic infection model at 50 mg, qd by Bayesian method
[19] = test system: Bacillus anthracis; assay: Growth rate constant for compound-sensitive toxin and capsule gene-deficient Bacillus anthracis Sterne in hollow-fiber pharmacodynamic infection model administered for every 24 hrs
[20] = test system: Bacillus anthracis; assay: Growth rate constant for compound-sensitive toxin and capsule gene-deficient Bacillus anthracis Sterne in hollow-fiber pharmacodynamic infection model at 200 mg, qd by Bayesian method
[21] = test system: Bacillus anthracis; assay: Total spore counts of toxin and capsule gene-deficient Bacillus anthracis Sterne in hollow-fiber pharmacodynamic infection model at 50 mg, qd by Bayesian method
[22] = test system: Bacillus anthracis; assay: Growth rate constant of spore-phase cells going to vegetative phase in toxin and capsule gene-deficient Bacillus anthracis Sterne in hollow-fiber pharmacodynamic infection model at 200 mg, qd by Bayesian method
[23] = test system: Bacillus anthracis; assay: Total sensitive organism counts of toxin and capsule gene-deficient Bacillus anthracis Sterne in hollow-fiber pharmacodynamic infection model administered for every 24 hrs
[24] = test system: Bacillus anthracis; assay: Growth rate constant of spore-phase cells going to vegetative phase in toxin and capsule gene-deficient Bacillus anthracis Sterne in hollow-fiber pharmacodynamic infection model at 150 mg administered as continuous infusion by Bayesian method
[25] = test system: Bacillus anthracis; assay: Growth rate constant for compound-sensitive toxin and capsule gene-deficient Bacillus anthracis Sterne in hollow-fiber pharmacodynamic infection model at 50 mg, qd by Bayesian method
[26] = test system: Bacillus anthracis; assay: Kill rate constant for compound-sensitive toxin and capsule gene-deficient Bacillus anthracis Sterne in hollow-fiber pharmacodynamic infection model at 100 mg administered as continuous infusion by Bayesian method
[27] = test system: Bacillus anthracis; assay: Kill rate constant for compound-sensitive toxin and capsule gene-deficient Bacillus anthracis Sterne in hollow-fiber pharmacodynamic infection model at 100 mg, qd by Bayesian method
[28] = test system: Bacillus anthracis; assay: Hill constant for compound-sensitive toxin and capsule gene-deficient Bacillus anthracis Sterne in hollow-fiber pharmacodynamic infection model at 250 mg, qd by Bayesian method
[29] = test system: Bacillus anthracis; assay: Kill rate constant for compound-sensitive toxin and capsule gene-deficient Bacillus anthracis Sterne in hollow-fiber pharmacodynamic infection model at 250 mg administered as continuous infusion by Bayesian method
[30] = test system: Bacillus anthracis; assay: Total spore counts of toxin and capsule gene-deficient Bacillus anthracis Sterne in hollow-fiber pharmacodynamic infection model at 200 mg, qd by Bayesian method
[31] = test system: Bacillus anthracis; assay: Hill constant for compound-sensitive toxin and capsule gene-deficient Bacillus anthracis Sterne in hollow-fiber pharmacodynamic infection model at 50 mg, qd by Bayesian method
[32] = test system: Bacillus anthracis; assay: Total sensitive organism counts of toxin and capsule gene-deficient Bacillus anthracis Sterne in hollow-fiber pharmacodynamic infection model at 200 mg, qd by Bayesian method
[33] = test system: Bacillus anthracis; assay: Total spore counts of toxin and capsule gene-deficient Bacillus anthracis Sterne in hollow-fiber pharmacodynamic infection model at 250 mg, qd by Bayesian method
[34] = test system: Bacillus anthracis; assay: Growth rate constant of vegetative-phase cells going to spore phase in toxin and capsule gene-deficient Bacillus anthracis Sterne in hollow-fiber pharmacodynamic infection model at 200 mg, qd by Bayesian method

`COc1c(N2C[C@@H]3CCCN[C@@H]3C2)c(F)cc2c(=O)c(C(=O)O)cn(C3CC3)c12` [MOXIFLOXACIN] was tested, and the Activity [1] was 4.96 h⁻¹, the Activity [2] was 6.58 h⁻¹ and the Activity [3] was 30 h⁻¹. It also gave a CFU/ml [4] of 21500000, an Activity [5] of 30 h⁻¹ and a CFU/ml [6] of 1870000. For the same molecule, the Activity [7] was 4.94 h⁻¹, the CFU/ml [8] was 20600000 and the Activity [9] was 30 h⁻¹. It also gave an Activity [10] of 30 h⁻¹, an Activity [11] of 0.0657 h⁻¹ and an Activity [12] of 4.29 h⁻¹. The Activity [13] was 8.25 h⁻¹, the Activity [14] was 8.28 h⁻¹ and the CFU/ml [15] was 36000000. It also gave an Activity [16] of 5.18 h⁻¹, an Activity [17] of 7.42 h⁻¹ and a CFU/ml [18] of 19600000. The Activity [19] was 8.24 h⁻¹, the Activity [20] was 1.81 h⁻¹ and the CFU/ml [21] was 1860000. For the same molecule, the Activity [22] was 1.01 h⁻¹, the CFU/ml [23] was 41200000 and the Activity [24] was 9.06 h⁻¹. The Activity [25] was 5.14 h⁻¹, the Activity [26] was 8.28 h⁻¹ and the Activity [27] was 7.48 h⁻¹. It also gave an Activity [28] of 1 h⁻¹, an Activity [29] of 8.28 h⁻¹ and a CFU/ml [30] of 2420000. For the same molecule, the Activity [31] was 5.84 h⁻¹, the CFU/ml [32] was 53600000 and the CFU/ml [33] was 2360000. It also gave an Activity [34] of 2.09 h⁻¹.
